For one data set, the system named is human iDCs. Put plainly: RNA uptake by human iDCs pretreated with macropinocytosis inhibitors, luciferase test. It counts as cell-based. The settings on record: 15 min luciferase-RNA or Cy3-RNA. The method, then:
(b-c) Human iDCs were pretreated with various inhibitors (dimethyl amiloride, cytochalasin D, LY294002, Rottlerin) and then coincubated for 15 min with luciferase-RNA or Cy3-RNA. After 24 h the luciferase signal was quantified in a standard luminescence test.
To verify whether the macropinocytosis constitutively active in iDCs is relevant for the uptake of naked RNA, human iDCs were pretreated with various inhibitors (dimethyl amiloride, cytochalasin D, LY294002, Rottlerin) and then coincubated for 15 min with luciferase-RNA or Cy3-RNA. After culture for a further 22 h, RNA uptake was quantified in a luciferase test. The mean+SEM is shown. The iDCs coincubated with Cy3-RNA (red) were fixed with paraformaldehyde and counterstained (Hoechst 33342, blue). […] FIG. 6(b-c).

The subject of data set [1] is macropinocytosis. Description: RNA uptake in lymph nodes after in vivo Rottlerin pretreatment, in-vivo bioluminescence. Details: species or system C57Bl/6 mice. The settings on record: inguinal lymph nodes pretreated with 10 μM; luciferase-RNA 10 μg intranodally; 24 h. Here is the method:
To clarify whether macropinocytosis is also the uptake mechanism relevant in vivo for RNA in the lymph node, the inguinal lymph nodes of C57/B16 mice were pretreated with Rottlerin (n=4, 10 μM) and then luciferase-RNA (10 μg) was injected intranodally. After 24 h, the in-vivo bioluminescence signal was measured.

In data set [2] the test system is macropinocytosis. Description: Intranodal RNA immunization after Rottlerin pretreatment of lymph nodes, tetramer measurement. It counts as in vivo, C57Bl/6 mice. The settings on record: SIINFEKL-coding RNA 20 μg intranodally d0 and d3; lymph nodes pretreated. The method, then:
(e) C57Bl/6 mice (n=3) were immunized intranodally on d0 and d3 with […]-coding RNA (20 μg). On both days the lymph nodes were pretreated with Rottlerin as described above. On day 8 the success of immunization was quantified by tetramer measurement in the peripheral blood. The success of intranodal RNA immunization correlated directly with the ability of cells to take up RNA by macropinocytosis.
To verify whether the in vivo inhibition of macropinocytosis has an effect on the efficiency of T cell priming after intranodal RNA immunization, C57/B16 mice (n=3) were immunized intranodally on d0 and d3 with […]-coding RNA (20 μg). On both days the lymph nodes were pretreated with Rottlerin as described above. The mean+SEM of the frequency of CD8+ antigen-specific T lymphocytes is shown. […] FIG. 6(e).
The main uptake mechanism of RNA uptake is macropinocytosis.

Data set [3] deals with RNA uptake in the lymph nodes. Description: Effect of Poly I:C on RNA uptake in lymph nodes, in-vivo bioluminescence. Details: species or system C57Bl/6 mice. The conditions noted are these: 20 μg s.c.; luciferase-RNA intranodally after 2 or 24 h. The method, then:
(e) Effect of Poly I:C on RNA uptake. C57Bl/6 mice (n=4) were injected s.c. with PBS or Poly I:C (20 μg) and after 2 or 24 h, luciferase-RNA was applied intranodally. After 24 h the luciferase signal was quantified in a standard bioluminescence test.
In order to verify to what extent maturing adjuvants can also lead in vivo to a reduction of RNA uptake, we tested the effect of Poly I:C on RNA uptake; cf. FIG. 7(e). For this, C57/Bl6 mice (n=4) were injected s.c. with PBS or Poly I:C (20 μg) and after 2 or 24 h, luciferase-RNA was applied intranodally. The in-vivo bioluminescence was measured after a further 24 h. The mean+SEM is shown.

Data set [4] concerns cell populations of the murine lymph node. Put plainly: Effects of different Flt3L on the cellular composition in lymph nodes. Type of data set: in vivo, C57BL/6 mice. The conditions noted are these: 0.4 mol i.p. day 0; lymph nodes day 10. The text has this: On day 10 the lymph nodes of the mice were removed and characterized by flow cytometry. Dendritic cells (DCs (marker: CD11c^+/NK1.1^−)), CD4^+ helper T cells (marker: CD3^+/CD4^+/CD8^−/NK1.1^−), CD8^+ T cells (marker: CD3^+/CD8^+/CD4^−/NK1.1^−), CD19^+ B cells (marker: CD19^+/CD3^−/NK1.1^−).
In this experiment Flt3 ligand (Flt3-IgG4) was compared with commercially available Flt3 preparations with respect to the effect on different cell populations of the murine lymph node. A product recombinantly expressed in bacteria (Peprotech Flt3L; Peprotech, Hamburg, Germany) and a product expressed in human HEK293 cells (Humanzyme Flt3L, Humanzyme; Chicago Ill., U.S.A.) were used as commercially available Flt3 preparations. Human IgG4 (Sigma-Aldrich, Deisenhofen, Germany) served as control.
On day 10 both inguinal lymph nodes of the mice were removed, the cell count determined by means of a Neubauer chamber and the cell populations were characterized by flow cytometry.

The conditions of data set [5]: Robinson et al., 2003; cited from earlier work.

As for `CC(=O)c1c(O)c(C)c(O)c(Cc2c(O)c3c(c(C(=O)/C=C/c4ccccc4)c2O)OC(C)(C)C=C3)c1O` [Rottlerin], the “inhibition of RNA uptake” value with human iDCs is on record as “more than 90%”. Moreover, the “RNA uptake in the lymph node” value in the data set on macropinocytosis [1] is “drastically reduced”. Moreover, the “vaccine action after inhibition of macropinocytosis” value in the data set with macropinocytosis [2] was “almost complete loss of vaccine action”.

As to Poly I:C, the “RNA uptake (in-vivo bioluminescence)” value in data set [3] is “sharp reduction in RNA uptake”.

B1: Flt3L (Humanzyme): commercially available Flt3 preparation expressed in human HEK293 cells (Humanzyme) (protein, UniProt P49771 27-235, looked up)
Fms-related tyrosine kinase 3 …: TQDCSFQHSPISSDFAVKIRELSDYLLQDYPVTVASNLQDEELCGGLWRLVLAQRWMERLKTVAGSKMQGLLERVNTEIHFVTKCAFQPPPSCLRFVQTNISRLLQETSEQLVALKPWITRQNFSRCLELQCQPDSSTLPPPWSPRPLEATAPTAPQPPLLLLLLLPVGLLLLAAAWCLHWQRTRRRTPRPGEQVPPVPSPQDLLLVEH
As for B1, the “expansion of dendritic cells” value in data set [4] is recorded as “strong similarity”.

B2: Flt3L without IgG4 fusion: Flt3L without IgG4 fusion, published half-life value (Robinson et al., 2003) (protein, UniProt P49771 27-235, looked up)
Fms-related tyrosine kinase 3 …: TQDCSFQHSPISSDFAVKIRELSDYLLQDYPVTVASNLQDEELCGGLWRLVLAQRWMERLKTVAGSKMQGLLERVNTEIHFVTKCAFQPPPSCLRFVQTNISRLLQETSEQLVALKPWITRQNFSRCLELQCQPDSSTLPPPWSPRPLEATAPTAPQPPLLLLLLLPVGLLLLAAAWCLHWQRTRRRTPRPGEQVPPVPSPQDLLLVEH
For B2, in data set [5], the “published value for the half-life” value is reported as 5 h.

B3: Flt3L (Peprotech): commercially available Flt3 preparation recombinantly expressed in bacteria (Peprotech) (protein, UniProt P49771 27-235, looked up)
Fms-related tyrosine kinase 3 …: TQDCSFQHSPISSDFAVKIRELSDYLLQDYPVTVASNLQDEELCGGLWRLVLAQRWMERLKTVAGSKMQGLLERVNTEIHFVTKCAFQPPPSCLRFVQTNISRLLQETSEQLVALKPWITRQNFSRCLELQCQPDSSTLPPPWSPRPLEATAPTAPQPPLLLLLLLPVGLLLLAAAWCLHWQRTRRRTPRPGEQVPPVPSPQDLLLVEH
Regarding B3, the “expansion of dendritic cells” value in data set [4] is given as “only slightly potent”.

Source of the values: patent US9486519B2, “Use of FLT3 ligand for enhancing immune responses in RNA immunization” (BioNTech AG, priority 2008, dated 2016).
